Reference: ChEMBL document CHEMBL1201862, “PubChem BioAssay data set” (2004)
Activity calls are given as the source filed them.

Assays:
[1] = target: T1, Heat shock factor protein 1 (Mus musculus, UniProt P38532); experiment: enhancement of HSF1-driven luciferase signal – cell-based, NIH3T3, luminescence, dose retest, confirmation (AID 435004); format: functional;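 further: stress induced by proteasome inhibitor MG132 added 30 min after compound; luciferase reporter driven by HSF1 response element in NIH3T3 cells; actives raise luminescence as potentiators of the MG132 stress response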
T1 sequence (P38532 whole entry): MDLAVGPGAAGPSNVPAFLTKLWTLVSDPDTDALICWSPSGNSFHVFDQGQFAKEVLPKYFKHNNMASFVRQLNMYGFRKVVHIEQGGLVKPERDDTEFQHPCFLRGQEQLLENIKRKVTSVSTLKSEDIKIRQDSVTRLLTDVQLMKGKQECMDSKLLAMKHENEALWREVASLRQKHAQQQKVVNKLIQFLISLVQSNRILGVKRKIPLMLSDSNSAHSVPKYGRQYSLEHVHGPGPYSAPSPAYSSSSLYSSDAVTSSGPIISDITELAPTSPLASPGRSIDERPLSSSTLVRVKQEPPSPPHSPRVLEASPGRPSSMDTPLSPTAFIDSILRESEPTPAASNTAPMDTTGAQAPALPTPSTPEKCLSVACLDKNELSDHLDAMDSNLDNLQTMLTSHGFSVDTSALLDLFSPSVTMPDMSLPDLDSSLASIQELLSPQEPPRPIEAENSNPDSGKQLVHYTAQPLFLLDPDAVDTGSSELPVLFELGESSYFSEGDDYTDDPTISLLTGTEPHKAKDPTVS

[2] = fluconazole-exposed Candida albicans growth modulators – fluorescence, retest, confirmation (AID 2467); format: functional, cell-based
Protein RecA = target: T2, Protein RecA (Mycobacterium tuberculosis, UniProt P9WHJ3); experiment: Fluorescence Cell-Free Homogeneous Dose Retest to Identify Inhibitors of RecA-Intein Splicing Activity. [Related pubchem assays (depositor defined):AID2097, AID2223, AID489010, AID492950]; format: functional
T2 sequence (P9WHJ3 whole entry): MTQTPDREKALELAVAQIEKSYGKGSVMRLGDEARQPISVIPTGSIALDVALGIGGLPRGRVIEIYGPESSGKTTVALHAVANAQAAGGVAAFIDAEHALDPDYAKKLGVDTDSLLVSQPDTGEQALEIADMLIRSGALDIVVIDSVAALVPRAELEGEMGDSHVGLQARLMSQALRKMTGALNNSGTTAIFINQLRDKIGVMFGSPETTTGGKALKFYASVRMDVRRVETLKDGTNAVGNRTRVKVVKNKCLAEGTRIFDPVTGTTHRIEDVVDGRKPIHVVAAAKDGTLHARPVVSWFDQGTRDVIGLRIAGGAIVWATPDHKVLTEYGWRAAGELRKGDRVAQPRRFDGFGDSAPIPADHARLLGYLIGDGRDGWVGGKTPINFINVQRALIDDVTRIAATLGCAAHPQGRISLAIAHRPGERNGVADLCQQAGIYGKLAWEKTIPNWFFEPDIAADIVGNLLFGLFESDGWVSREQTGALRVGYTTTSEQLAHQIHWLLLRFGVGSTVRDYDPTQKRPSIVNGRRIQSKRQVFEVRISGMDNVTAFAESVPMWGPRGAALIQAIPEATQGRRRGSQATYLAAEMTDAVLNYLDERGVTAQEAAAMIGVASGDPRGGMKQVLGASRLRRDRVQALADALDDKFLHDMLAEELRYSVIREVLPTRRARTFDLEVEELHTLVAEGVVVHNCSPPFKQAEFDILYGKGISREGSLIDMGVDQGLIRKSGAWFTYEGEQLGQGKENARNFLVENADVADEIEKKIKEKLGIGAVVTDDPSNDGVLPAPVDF

[3] = target: Tyrosyl-DNA phosphodiesterase 2 (Homo sapiens, UniProt O95551); experiment: potency against TDP2 phosphodiesterase activity – biochemical, epi absorbance, IC50, dose response (AID 743297)
[4] = target: ATP-dependent molecular chaperone HSP82 (Candida albicans (strain WO-1) (Yeast), UniProt C4YTQ8); experiment: steroid-induced GRE reporter decrease in yeast – S. cerevisiae, luminescence, Hsp90 inhibitor project, dose response (AID 2400); format: functional, cell-based;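 further: beta-galactosidase luminescence from glucocorticoid response element reporter as proxy for Hsp90 function; inhibitor potency where signal loss means Hsp90 inhibition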
INS1 = experiment: INS-1E survival protection against cytokine death – cell-based, luminescence, retest, dose response (AID 449756); format: functional; settings: Rattus norvegicus;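 further: cell death triggered by IL-1 beta plus TNF-alpha plus IFN-gamma mixture; protective hits raise ATP signal compared with cytokine alone wells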
Vero = experiment: viability of Vero cells under compound – cytotoxicity control for flavivirus capping enzyme inhibitors (AID 588742); format: functional; settings: Chlorocebus sabaeus
[5] = target: T3, Replicative DNA helicase DnaB (Mycobacterium tuberculosis, UniProt P9WMR3); experiment: DnaB intein splicing inhibitors, dose response, biochemical, cell-free fluorescence (AID 449749); format: functional
T3 sequence (P9WMR3 whole entry): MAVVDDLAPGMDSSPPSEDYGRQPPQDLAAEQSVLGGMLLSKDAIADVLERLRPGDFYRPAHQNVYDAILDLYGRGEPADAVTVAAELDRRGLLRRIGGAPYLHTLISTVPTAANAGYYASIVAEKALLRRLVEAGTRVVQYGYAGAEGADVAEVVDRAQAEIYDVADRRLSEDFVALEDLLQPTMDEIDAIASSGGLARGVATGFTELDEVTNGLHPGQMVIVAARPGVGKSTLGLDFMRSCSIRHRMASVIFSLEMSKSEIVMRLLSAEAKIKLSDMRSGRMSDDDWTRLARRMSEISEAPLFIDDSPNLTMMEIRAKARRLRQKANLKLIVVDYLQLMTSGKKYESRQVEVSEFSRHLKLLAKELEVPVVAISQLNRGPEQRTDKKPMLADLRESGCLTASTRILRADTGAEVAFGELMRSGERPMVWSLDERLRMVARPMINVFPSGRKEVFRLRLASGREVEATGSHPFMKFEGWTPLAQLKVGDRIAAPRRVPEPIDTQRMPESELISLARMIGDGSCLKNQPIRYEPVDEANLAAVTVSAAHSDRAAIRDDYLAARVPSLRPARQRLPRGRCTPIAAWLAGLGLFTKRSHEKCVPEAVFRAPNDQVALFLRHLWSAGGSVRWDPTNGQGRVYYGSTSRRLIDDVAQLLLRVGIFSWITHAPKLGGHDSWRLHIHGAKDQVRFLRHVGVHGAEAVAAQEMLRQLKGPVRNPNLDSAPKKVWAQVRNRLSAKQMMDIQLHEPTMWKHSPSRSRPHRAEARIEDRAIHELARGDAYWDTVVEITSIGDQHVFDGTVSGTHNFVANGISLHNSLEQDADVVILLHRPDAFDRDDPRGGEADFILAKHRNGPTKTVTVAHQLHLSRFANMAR

Sequence of ATP-dependent molecular chaperone HSP82 (C4YTQ8 whole entry): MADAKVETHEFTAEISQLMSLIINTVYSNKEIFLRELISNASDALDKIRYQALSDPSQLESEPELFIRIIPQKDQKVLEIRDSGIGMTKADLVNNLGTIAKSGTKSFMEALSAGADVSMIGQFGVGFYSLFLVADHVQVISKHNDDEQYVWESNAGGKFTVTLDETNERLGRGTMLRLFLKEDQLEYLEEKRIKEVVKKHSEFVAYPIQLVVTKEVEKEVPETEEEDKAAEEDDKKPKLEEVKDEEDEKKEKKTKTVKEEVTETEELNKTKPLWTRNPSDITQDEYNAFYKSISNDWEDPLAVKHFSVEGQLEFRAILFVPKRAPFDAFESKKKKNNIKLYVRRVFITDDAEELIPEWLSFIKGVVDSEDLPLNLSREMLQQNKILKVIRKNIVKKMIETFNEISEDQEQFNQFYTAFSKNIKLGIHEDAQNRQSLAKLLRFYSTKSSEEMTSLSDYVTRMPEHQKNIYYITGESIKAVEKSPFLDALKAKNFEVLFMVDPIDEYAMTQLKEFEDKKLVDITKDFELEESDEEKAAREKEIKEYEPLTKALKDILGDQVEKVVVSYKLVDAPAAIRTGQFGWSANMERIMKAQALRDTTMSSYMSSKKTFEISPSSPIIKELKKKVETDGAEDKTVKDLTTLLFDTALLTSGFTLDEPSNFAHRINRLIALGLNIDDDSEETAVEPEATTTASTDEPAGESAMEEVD
Sequence of Tyrosyl-DNA phosphodiesterase 2 (O95551 whole entry): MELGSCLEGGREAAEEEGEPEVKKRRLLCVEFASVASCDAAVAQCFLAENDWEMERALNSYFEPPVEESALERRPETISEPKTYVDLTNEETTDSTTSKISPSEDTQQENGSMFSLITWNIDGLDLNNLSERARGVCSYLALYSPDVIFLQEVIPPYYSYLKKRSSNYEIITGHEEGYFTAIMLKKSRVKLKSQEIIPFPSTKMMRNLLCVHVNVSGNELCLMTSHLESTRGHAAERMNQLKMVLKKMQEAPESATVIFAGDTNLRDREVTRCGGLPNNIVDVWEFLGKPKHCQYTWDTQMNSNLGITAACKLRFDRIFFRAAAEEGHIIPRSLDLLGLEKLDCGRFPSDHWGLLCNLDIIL

Row | SMILES | EC50 [1] | EC50 [2] | EC50 (Protein RecA) | IC50 [3] | EC50 [4] | AC50 (INS1) | CC50 (Vero) | AC50 [5]
1 | Cc1ccc(NC2=CC(=O)C(=O)c3ccccc32)cc1 | 7040 nM (active) | 451 nM (active) | 999 nM (active) | 26200 nM (inactive) | 40700 nM (active) | 2630 nM (active) | 11400 nM (active) | 971 nM (active)
2 | O=C(O)c1ccc(S(=O)(=O)/N=C2\C=C(Nc3ccccc3F)C(=O)c3ccccc32)cc1 | > 260000 nM (inconclusive) |  | 66.3 nM (active) |  |  | 2610 nM (active) | 26400 nM (active) | 146 nM (active)
